Results taken from patent US7297700B2, “Bicycloheteroaryl compounds as P2X7 modulators and uses thereof” (Renovis, Inc., priority 2005, dated 2007).

Test system: IL-1β release from THP-1 cells
Assay: IL-1β Release Assay (Alternate Method), THP-1 cells
Assay type: cell-based, human
Settings: at 0.3 μM; THP-1 cells
In short: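 THP-1 cells differentiated 16 h with 100 ng/mL LPS plus 100 ng/mL IFN-γ, reprimed 2 h with 100 ng/mL LPS, pretreated 30 min with compound, then challenged 45 min with 250 uM BzATP (final). Supernatant IL-1β quantified by ELISA; percent inhibition from background-adjusted levels versus untreated cells.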

| Compound | IL-1β % inhibition |
| --- | --- |
| Cc1ccc(S(=O)(=O)N2CCc3c(ncnc3NC(=O)CC34CC5CC(CC(C5)C3)C4)C2)cc1 [Compound 144] | +++ (compound exhibited 50-75% inhibition at 0.3 μM) |
| O=C(c1ccc(OC(F)(F)F)cc1)N1CCc2c(ncnc2NC(=O)C23CC4CC(CC(C4)C2)C3)C1 [Compound 401] | + (compound exhibited 0-25% inhibition at 0.3 μM) |
| O=C(CC12CC3CC(CC(C3)C1)C2)Nc1ncnc2c1CCN(C(=O)c1cc(F)ccc1F)C2 [Compound 279] | ++++ (compound exhibited 75% or greater inhibition at 0.3 μM) |
| O=C(CC12CC3CC(CC(C3)C1)C2)Nc1ncnc2c1CCN(Cc1ccc(C(F)(F)F)cc1F)C2 [Compound 110] | + (compound exhibited 0-25% inhibition at 0.3 μM) |
| CC(C)(C)CC(=O)N1CCc2c(ncnc2NC(=O)C(C)(C)C23CC4CC(CC(C4)C2)C3)C1 [Compound 367] | + (compound exhibited 0-25% inhibition at 0.3 μM) |
| O=C(CC12CC3CC(CC(C3)C1)C2)Nc1ncnc2c1CCN(C(=O)c1ccc(F)cc1F)C2 [Compound 277] | +++ (compound exhibited 50-75% inhibition at 0.3 μM) |

Same assay, conditions: at 0.3 μM; THP-1 cells, BzATP-stimulated

| Compound | IL-1β % inhibition |
| --- | --- |
| O=C(Nc1ncnc2c1CCN(Cc1ccc(Cl)cc1)C2)C12CC3CC(CC(C3)C1)C2 [Compound 601] | +++ (compound exhibited 50-75% inhibition at 0.3 μM) |
| CCOc1ccc(CN2CCc3c(ncnc3NC(=O)C34CC5CC(CC(C5)C3)C4)C2)cc1 [Compound 630] | ++++ (compound exhibited 75% or greater inhibition at 0.3 μM) |
| O=C(Nc1ncnc2c1CCN(Cc1ccc3c(c1)OCO3)C2)C12CC3CC(CC(C3)C1)C2 [Compound 564] | ++++ (compound exhibited 75% or greater inhibition at 0.3 μM) |
| N#Cc1ccc(CN2CCc3c(ncnc3NC(=O)C34CC5CC(CC(C5)C3)C4)C2)cc1 [Compound 603] | + (compound exhibited 0-25% inhibition at 0.3 μM) |
| O=C(Nc1ncnc2c1CCN(Cc1ccc(Cl)cc1F)C2)C12CC3CC(CC(C3)C1)C2 [Compound 635] | + (compound exhibited 0-25% inhibition at 0.3 μM) |
